Measured values: PubChem BioAssay AID256 (DTP/NCI, 2004)
Values joined by “and” are separate entries in the source; they are usually repeats but may differ in a detail not shown here. Equal entries are not always repeated. Inconclusive results and toxic doses are left out.

Tested on: CD2F1 mice, L1210 leukemia ip, survival T/C
Test: NCI In Vivo Anticancer Drug Screen. Data for tumor model L1210 Leukemia (intraperitoneal) in CD2F1 (CDF1) mice
Conditions: higher = longer survival
Summary of the method: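 Compound-dosed mice with transplantable tumor versus matched vehicle controls; endpoint ratio T/C reported.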

[1] = endpoint: mean survival time, dose: 100.0 mg/kg/injection, schedule: Q01DX001 (ip), vehicle: saline with Tween-80
[2] = endpoint: mean survival time, dose: 200.0 mg/kg/injection, schedule: Q01DX001 (ip), vehicle: saline with Tween-80
[3] = endpoint: mean survival time, dose: 400.0 mg/kg/injection, schedule: Q01DX001 (ip), vehicle: saline with Tween-80
[4] = endpoint: mean survival time, dose: 100.0 mg/kg/injection, schedule: Q01DX009 (ip), vehicle: saline with Tween-80
[5] = endpoint: mean survival time, dose: 200.0 mg/kg/injection, schedule: Q01DX009 (ip), vehicle: saline with Tween-80
[6] = endpoint: mean survival time, dose: 400.0 mg/kg/injection, schedule: Q01DX009 (ip), vehicle: saline with Tween-80
[7] = endpoint: mean survival time, dose: 100.0 mg/kg/injection, schedule: Q01DX009 (ip), vehicle: saline
[8] = endpoint: mean survival time, dose: 100.0 mg/kg/injection, schedule: Q04DX003 (ip), vehicle: saline
[9] = endpoint: mean survival time, dose: 200.0 mg/kg/injection, schedule: Q01DX009 (ip), vehicle: saline
[10] = endpoint: mean survival time, dose: 100.0 mg/kg/injection, schedule: Q04DX002 (ip), vehicle: saline with Tween-80
[11] = endpoint: mean survival time, dose: 400.0 mg/kg/injection, schedule: Q04DX002 (ip), vehicle: saline with Tween-80

`Cc1ccc2nc(-c3ccc(N=Cc4ccccc4O)cc3)sc2c1` was tested, and the T/C (endpoint: mean survival time, dose: 12.5 mg/kg/injection, schedule: Q01DX009 (ip), vehicle: olive oil, sesame oil, peanut oil) was 100 % of control, the T/C (endpoint: mean survival time, dose: 25.0 mg/kg/injection, schedule: Q01DX009 (ip), vehicle: olive oil, sesame oil, peanut oil) was 98 % of control and the T/C (endpoint: mean survival time, dose: 50.0 mg/kg/injection, schedule: Q01DX009 (ip), vehicle: olive oil, sesame oil, peanut oil) was 102 % of control. For the same compound, the T/C (endpoint: mean survival time, dose: 100.0 mg/kg/injection, schedule: Q01DX009 (ip), vehicle: olive oil, sesame oil, peanut oil) was 95 % of control, the T/C (endpoint: mean survival time, dose: 200.0 mg/kg/injection, schedule: Q01DX009 (ip), vehicle: olive oil, sesame oil, peanut oil) was 100 % of control and the T/C (endpoint: mean survival time, dose: 400.0 mg/kg/injection, schedule: Q01DX009 (ip), vehicle: olive oil, sesame oil, peanut oil) was 96 % of control.
In the case of `O=S(=O)(F)c1ccc(-c2cc(Cl)c3cc(F)ccc3n2)cc1`, the T/C [1] is reported as 98 % of control, the T/C [2] is reported as 98 % of control and the T/C [3] is reported as 94 % of control.
`ClC1CCC[N-]C1.ClC1CCC[N-]C1.[Cl][Pt+2][Cl]` (stereo not given) was tested, and the T/C (endpoint: mean survival time, dose: 0.78 mg/kg/injection, schedule: Q01DX009 (ip), vehicle: saline) was 103 % of control, the T/C (endpoint: mean survival time, dose: 1.56 mg/kg/injection, schedule: Q01DX009 (ip), vehicle: saline) was 94 % of control and the T/C (endpoint: mean survival time, dose: 3.13 mg/kg/injection, schedule: Q01DX009 (ip), vehicle: saline) was 102 % of control. The T/C (endpoint: mean survival time, dose: 6.25 mg/kg/injection, schedule: Q01DX009 (ip), vehicle: saline) was 96 % of control, the T/C (endpoint: mean survival time, dose: 12.5 mg/kg/injection, schedule: Q01DX009 (ip), vehicle: saline) was 89 % of control and the T/C (endpoint: mean survival time, dose: 50.0 mg/kg/injection, schedule: Q01DX009 (ip), vehicle: saline with Tween-80) was 108 % of control. The T/C [4] was 95 % of control.
`COC(=O)/C=C/c1ccc(OC(=O)c2ccccc2)cc1` was tested, and the T/C [4] was 95 % of control, the T/C [5] was 96 % of control and the T/C [6] was 98 % of control.
For `CCc1ncnc2cc(OCC3CO3)c(OC)cc12` (stereo not given), the T/C (endpoint: median survival time, dose: 6.25 mg/kg/injection, schedule: Q01DX009 (ip), vehicle: saline with Tween-80) was 109 % of control, the T/C (endpoint: median survival time, dose: 6.25 mg/kg/injection, schedule: Q01DX009 (ip), vehicle: saline) was 112 % of control and the T/C (endpoint: median survival time, dose: 7.5 mg/kg/injection, schedule: Q01DX009 (ip), vehicle: suspension in saline) was 123 % of control. For the same compound, the T/C (endpoint: median survival time, dose: 10.0 mg/kg/injection, schedule: Q03DX003 (ip), vehicle: saline) was 154 % of control, the T/C (endpoint: median survival time, dose: 12.5 mg/kg/injection, schedule: Q01DX009 (ip), vehicle: saline with Tween-80) was 116 % of control and the T/C (endpoint: median survival time, dose: 12.5 mg/kg/injection, schedule: Q01DX009 (ip), vehicle: saline) was 121 % of control. The T/C (endpoint: median survival time, dose: 20.0 mg/kg/injection, schedule: Q01DX009 (ip), vehicle: other) was 156 % of control, the T/C (endpoint: median survival time, dose: 40.0 mg/kg/injection, schedule: Q01DX009 (ip), vehicle: other) was 166 % of control and the T/C (endpoint: median survival time, dose: 40.0 mg/kg/injection, schedule: Q04DX003 (ip), vehicle: other) was 112 % of control. The T/C (endpoint: median survival time, dose: 50.0 mg/kg/injection, schedule: Q01DX009 (ip), vehicle: DMSO) was 169 % of control, the T/C (endpoint: median survival time, dose: 50.0 mg/kg/injection, schedule: Q03DX003 (ip), vehicle: saline) was 152 % of control and 169 % of control and the T/C (endpoint: median survival time, dose: 80.0 mg/kg/injection, schedule: Q01DX001 (ip), vehicle: other) was 174 % of control. The T/C (endpoint: median survival time, dose: 80.0 mg/kg/injection, schedule: Q01DX001 (ip), vehicle: water) was 178 % of control, the T/C (endpoint: median survival time, dose: 80.0 mg/kg/injection, schedule: Q04DX003 (ip), vehicle: other) was 153 % of control and the T/C (endpoint: median survival time, dose: 120.0 mg/kg/injection, schedule: Q01DX001 (ip), vehicle: other) was 182 % of control. The T/C (endpoint: median survival time, dose: 120.0 mg/kg/injection, schedule: Q01DX001 (ip), vehicle: water) was 160 % of control and the T/C (endpoint: median survival time, dose: 120.0 mg/kg/injection, schedule: Q04DX003 (ip), vehicle: other) was 150 % of control.
In the case of `O=C(OCc1ccccc1)c1cc([N+](=O)[O-])c(Cl)c([N+](=O)[O-])c1`, the T/C [1] is reported as 101 % of control, the T/C [4] is reported as 97 % of control and the T/C [2] is reported as 97 % of control. For the same compound, the T/C [5] was 98 % of control and the T/C [3] was 98 % of control.
For `Clc1ccc(C[P+](c2ccccc2)(c2ccccc2)c2ccccc2)c(Cl)c1`, the T/C (endpoint: mean survival time, dose: 5.0 mg/kg/injection, schedule: Q01DX009 (ip), vehicle: saline sonified) was 103 % of control, the T/C (endpoint: mean survival time, dose: 5.0 mg/kg/injection, schedule: Q04DX003 (ip), vehicle: saline with Tween-80) was 92 % of control and the T/C (endpoint: mean survival time, dose: 10.0 mg/kg/injection, schedule: Q04DX003 (ip), vehicle: saline with Tween-80) was 96 % of control. For the same compound, the T/C (endpoint: mean survival time, dose: 12.5 mg/kg/injection, schedule: Q04DX003 (ip), vehicle: saline with Tween-80) was 100 % of control, the T/C (endpoint: mean survival time, dose: 20.0 mg/kg/injection, schedule: Q04DX003 (ip), vehicle: saline with Tween-80) was 108 % of control and the T/C (endpoint: mean survival time, dose: 25.0 mg/kg/injection, schedule: Q04DX003 (ip), vehicle: saline with Tween-80) was 93 % of control.
In the case of `S=C(NNC(=S)Nc1ccc(Cl)cc1)NNc1ccccc1`, the T/C (endpoint: mean survival time, dose: 50.0 mg/kg/injection, schedule: Q01DX009 (ip), vehicle: acetone) is reported as 95 % of control and the T/C (endpoint: mean survival time, dose: 100.0 mg/kg/injection, schedule: Q01DX009 (ip), vehicle: acetone) is reported as 97 % of control.
With `CC(C)(CO)NC(=O)CCO` the T/C [7] was 101 % of control, the T/C [8] was 97 % of control and the T/C [9] was 103 % of control. For the same compound, the T/C (endpoint: mean survival time, dose: 200.0 mg/kg/injection, schedule: Q04DX003 (ip), vehicle: saline) was 98 % of control, the T/C (endpoint: mean survival time, dose: 400.0 mg/kg/injection, schedule: Q01DX009 (ip), vehicle: saline) was 104 % of control and the T/C (endpoint: mean survival time, dose: 400.0 mg/kg/injection, schedule: Q04DX003 (ip), vehicle: saline) was 101 % of control.
In the case of `CCC(=O)OCc1cc2ccccc2c(-c2c(O)c(CN3CCOCC3)cc3ccccc23)c1O`, the T/C [10] is reported as 95 % of control, the T/C (endpoint: mean survival time, dose: 200.0 mg/kg/injection, schedule: Q04DX002 (ip), vehicle: saline with Tween-80) is reported as 91 % of control and the T/C [11] is reported as 91 % of control.
With `CCCCNCCCC` the T/C [8] was 97 % of control.
In the case of `Cn1c2nc3ccccc3c-2nc2ccccc21`, the T/C (endpoint: mean survival time, dose: 1.56 mg/kg/injection, schedule: Q01DX009 (ip), vehicle: water) is reported as 100 % of control, the T/C (endpoint: mean survival time, dose: 3.13 mg/kg/injection, schedule: Q01DX009 (ip), vehicle: water) is reported as 93 % of control and the T/C (endpoint: mean survival time, dose: 6.25 mg/kg/injection, schedule: Q01DX009 (ip), vehicle: water) is reported as 88 % of control. The T/C (endpoint: mean survival time, dose: 12.5 mg/kg/injection, schedule: Q01DX009 (ip), vehicle: water) was 89 % of control, the T/C (endpoint: mean survival time, dose: 25.0 mg/kg/injection, schedule: Q01DX009 (ip), vehicle: Klucel (hydroxypropylcellulose) (HPC)) was 101 % of control and the T/C (endpoint: mean survival time, dose: 25.0 mg/kg/injection, schedule: Q01DX009 (ip), vehicle: water) was 86 % of control and 89 % of control. For the same compound, the T/C (endpoint: mean survival time, dose: 50.0 mg/kg/injection, schedule: Q01DX009 (ip), vehicle: Klucel (hydroxypropylcellulose) (HPC)) was 103 % of control, the T/C (endpoint: mean survival time, dose: 100.0 mg/kg/injection, schedule: Q01DX009 (ip), vehicle: Klucel (hydroxypropylcellulose) (HPC)) was 105 % of control and the T/C (endpoint: mean survival time, dose: 200.0 mg/kg/injection, schedule: Q01DX009 (ip), vehicle: Klucel (hydroxypropylcellulose) (HPC)) was 95 % of control.
For `COP1(=S)OCC2OC(n3cc(C)c(=O)[nH]c3=O)CC2O1` (stereo not given), the T/C (endpoint: mean survival time, dose: 12.5 mg/kg/injection, schedule: Q01DX005 (ip), vehicle: distilled water + Tween-80) was 101 % of control, the T/C (endpoint: mean survival time, dose: 25.0 mg/kg/injection, schedule: Q01DX005 (ip), vehicle: distilled water + Tween-80) was 102 % of control and the T/C (endpoint: mean survival time, dose: 50.0 mg/kg/injection, schedule: Q01DX005 (ip), vehicle: distilled water + Tween-80) was 102 % of control. The T/C (endpoint: mean survival time, dose: 100.0 mg/kg/injection, schedule: Q01DX005 (ip), vehicle: distilled water + Tween-80) was 102 % of control and the T/C (endpoint: mean survival time, dose: 200.0 mg/kg/injection, schedule: Q01DX005 (ip), vehicle: distilled water + Tween-80) was 98 % of control.
For `COc1ccc(NC(=O)Nc2ccccc2C)c(Cl)c1`, the T/C (endpoint: mean survival time, dose: 25.0 mg/kg/injection, schedule: Q04DX002 (ip), vehicle: saline with Tween-80) was 94 % of control, the T/C (endpoint: mean survival time, dose: 50.0 mg/kg/injection, schedule: Q04DX002 (ip), vehicle: saline with Tween-80) was 98 % of control and the T/C [10] was 86 % of control and 90 % of control. The T/C [11] was 86 % of control.
For `O=C(c1ccc(Cl)cc1)C1CC(Br)C(Br)CC1C(=O)c1ccc(Cl)cc1` (stereo not given), the T/C [4] was 96 % of control, the T/C (endpoint: mean survival time, dose: 100.0 mg/kg/injection, schedule: Q04DX003 (ip), vehicle: saline with Tween-80) was 101 % of control and the T/C [5] was 98 % of control. The T/C (endpoint: mean survival time, dose: 200.0 mg/kg/injection, schedule: Q04DX003 (ip), vehicle: saline with Tween-80) was 98 % of control, the T/C [6] was 100 % of control and the T/C (endpoint: mean survival time, dose: 400.0 mg/kg/injection, schedule: Q04DX003 (ip), vehicle: saline with Tween-80) was 98 % of control.
With `O=C(O)c1ccc2cc(O)ccc2c1` the T/C [7] was 100 % of control and the T/C [9] was 94 % of control.
